From ChEMBL document CHEMBL1121855, “Potential salicylamide antiplaque agents: in vitro antibacterial activity against Actinomyces viscosus” (J Med Chem, 1981)
In brackets after ≈: the same amount, converted by molar mass.

Legend:
Actinomyces viscosus [1] = assay: In vitro antibacterial activity against Actinomyces viscosus M-100-2000; type: functional
[2] = Distribution coefficient between octanol and aqueous phase at pH7.2; type: physicochemical; conditions: pH 7.2
[3] = Observed inhibitory activity against various Actinomycetes strains; conditions: actinomycetaceae
[4] = Partition coefficient is determined in octanol/buffer solution; type: physicochemical
[5] = Dissociation constant is the negative logarithm of the equilibrium coefficient of the neutral and charged forms of the compound; type: physicochemical
Actinomyces israelii [6] = assay: In vitro antibacterial activity against Actinomycetes israelii 28360; type: functional
Actinomyces naeslundii [7] = assay: In vitro antibacterial activity against Actinomycetes naeslundii 12104; type: functional
Actinomyces naeslundii [8] = assay: In vitro antibacterial activity against Actinomycetes naeslundii 8115; type: functional
Actinomyces israelii [9] = assay: In vitro antibacterial activity against Actinomycetes israelii 10048; type: functional
Actinomyces viscosus [10] = assay: In vitro antibacterial activity against Actinomycetes viscosus T14V; type: functional
Actinomyces israelii [11] = assay: In vitro antibacterial activity against Actinomycetes israelii 12836; type: functional

SMILES: CCCCCCc1ccc(O)c(C(=O)NCc2ccc(C)c([N+](=O)[O-])c2)c1
- MIC (Actinomyces viscosus [1]): > 20 µg/mL

SMILES: CCCCCCc1ccc(O)c(C(=O)NCc2cccc([N+](=O)[O-])c2)c1
- MIC (Actinomyces viscosus [1]): 0.5 µg/mL (≈ 1.4 µM)

SMILES: COc1ccc(O)c(C(=O)Nc2ccc(Br)cc2)c1
- MIC (Actinomyces viscosus [1]): > 25 µg/mL

SMILES: O=C(Nc1ccc(Br)cc1)c1cc(Br)cc(Br)c1O [TRIBROMSALAN]
- logD [2]: 4.78
- Log 1/MIC [3]: 5.95
- logP ([4]; octanol/buffer, read-out: logP): 6.15
- pKa [5]: 5.85
- MIC (Actinomyces israelii [6]): 5 µg/mL (≈ 11.1 µM)
- MIC (Actinomyces naeslundii [7]): 1 µg/mL (≈ 2.22 µM)
- MIC (Actinomyces naeslundii [8]): 1 µg/mL (≈ 2.22 µM)
- MIC (Actinomyces viscosus [1]): 0.5 µg/mL (≈ 1.11 µM)
- MIC (Actinomyces israelii [9]): 1 µg/mL (≈ 2.22 µM)
- MIC (Actinomyces viscosus [10]): 1 µg/mL (≈ 2.22 µM)
- MIC (Actinomyces israelii [11]): 0.5 µg/mL (≈ 1.11 µM)

SMILES: CCCCCCCCCCCC(=O)c1ccc(O)c(C(=O)Nc2ccc(Br)cc2)c1
- logD [2]: 7.88
- Log 1/MIC [3]: 7.37
- logP ([4]; octanol/water): 9.02
- pKa [5]: 6.1
- MIC (Actinomyces israelii [6]): 0.5 µg/mL (≈ 1.05 µM)
- MIC (Actinomyces naeslundii [7]): 0.5 µg/mL (≈ 1.05 µM)
- MIC (Actinomyces naeslundii [8]): 1 µg/mL (≈ 2.11 µM)
- MIC (Actinomyces viscosus [1]): 0.02 µg/mL (≈ 0.0422 µM)
- MIC (Actinomyces israelii [9]): > 5 µg/mL
- MIC (Actinomyces viscosus [10]): 0.5 µg/mL (≈ 1.05 µM)
- MIC (Actinomyces israelii [11]): > 5 µg/mL

SMILES: O=C(Nc1ccc([N+](=O)[O-])cc1)c1cc(Br)cc(Br)c1O
- MIC (Actinomyces viscosus [1]): 0.5 µg/mL (≈ 1.2 µM)

SMILES: O=C(Nc1nc2cc(Cl)ccc2o1)c1cc(Br)cc(Br)c1O
- MIC (Actinomyces viscosus [1]): > 35 µg/mL

SMILES: CCCCCCCC(=O)c1ccc(O)c(C(=O)Nc2ccc(Br)cc2)c1
- logD [2]: 5.88
- Log 1/MIC [3]: 5.92
- logP ([4]; octanol/buffer, read-out: logP): 7.02
- pKa [5]: 6.1
- MIC (Actinomyces viscosus [1]): 0.5 µg/mL (≈ 1.2 µM)

SMILES: CCCCCCCCCC(=O)c1ccc(O)c(C(=O)Nc2ccc([N+](=O)[O-])cc2)c1
- MIC (Actinomyces israelii [6]): 0.05 µg/mL (≈ 0.121 µM)
- MIC (Actinomyces naeslundii [7]): 0.5 µg/mL (≈ 1.21 µM)
- MIC (Actinomyces naeslundii [8]): 0.05 µg/mL (≈ 0.121 µM)
- MIC (Actinomyces viscosus [1]): 0.05 µg/mL (≈ 0.121 µM)
- MIC (Actinomyces israelii [9]): 0.05 µg/mL (≈ 0.121 µM)
- MIC (Actinomyces viscosus [10]): 0.05 µg/mL (≈ 0.121 µM)
- MIC (Actinomyces israelii [11]): 0.05 µg/mL (≈ 0.121 µM)

SMILES: CCCCCCc1cc(C(=O)Nc2ccc(Br)cc2)c(O)c([N+](=O)[O-])c1
- logD [2]: 5.96
- Log 1/MIC [3]: 6.02
- logP ([4]; octanol/buffer, read-out: logP): 7.56
- pKa [5]: 5.6
- MIC (Actinomyces viscosus [1]): 0.4 µg/mL (≈ 0.949 µM)

SMILES: CCCCCCc1ccc(O)c(C(=O)NCc2ccc(Cl)cc2)c1
- MIC (Actinomyces viscosus [1]): 10 µg/mL (≈ 28.9 µM)

SMILES: Cc1nnc(NC(=O)c2cc(Br)cc(Br)c2O)s1
- MIC (Actinomyces viscosus [1]): 100 µg/mL (≈ 254 µM)

SMILES: Cc1cc(C(=O)Nc2ccc(Br)cc2)c(O)c([N+](=O)[O-])c1
- logD [2]: 3.46
- Log 1/MIC [3]: 3.94
- logP ([4]; octanol/buffer, read-out: logP): 5.06
- pKa [5]: 5.6
- MIC (Actinomyces viscosus [1]): 45 µg/mL (≈ 128 µM)

SMILES: CCCCCCCC(=O)c1ccc(O)c(C(=O)Nc2ccc([N+](=O)[O-])cc2)c1
- MIC (Actinomyces viscosus [1]): 0.1 µg/mL (≈ 0.26 µM)

SMILES: CCCCCCCCCCc1ccc(O)c(C(=O)Nc2ccc(Br)cc2)c1
- MIC (Actinomyces viscosus [1]): 3.25 µg/mL (≈ 7.52 µM)

SMILES: CCCCCC(=O)c1ccc(O)c(C(=O)Nc2ccc(Br)cc2)c1
- logD [2]: 4.88
- Log 1/MIC [3]: 5.6
- logP ([4]; octanol/buffer, read-out: logP): 6.02
- pKa [5]: 6.1
- MIC (Actinomyces viscosus [1]): 1 µg/mL (≈ 2.56 µM)

SMILES: CCCCCCc1ccc(O)c(C(=O)Nc2ccc(Br)cc2)c1
- logD [2]: 6.88
- Log 1/MIC [3]: 7.58
- logP ([4]; octanol/buffer, read-out: logP): 7.11
- pKa [5]: 7.35
- MIC (Actinomyces israelii [6]): 0.1 µg/mL (≈ 0.266 µM)
- MIC (Actinomyces naeslundii [7]): 1 µg/mL (≈ 2.66 µM)
- MIC (Actinomyces naeslundii [8]): 0.1 µg/mL (≈ 0.266 µM)
- MIC (Actinomyces viscosus [1]): 0.01 µg/mL (≈ 0.0266 µM)
- MIC (Actinomyces israelii [9]): 0.1 µg/mL (≈ 0.266 µM)
- MIC (Actinomyces viscosus [10]): 0.1 µg/mL (≈ 0.266 µM)
- MIC (Actinomyces israelii [11]): 0.5 µg/mL (≈ 1.33 µM)

SMILES: Cc1ccc(O)c(C(=O)NCCCCCCNC(=O)c2cc(C)ccc2O)c1
- MIC (Actinomyces viscosus [1]): > 20 µg/mL

SMILES: CCCc1ccc(O)c(C(=O)Nc2ccc(Br)cc2)c1
- logD [2]: 5.38
- Log 1/MIC [3]: 5.35
- logP ([4]; octanol/buffer, read-out: logP): 5.61
- pKa [5]: 7.35
- MIC (Actinomyces viscosus [1]): 1.5 µg/mL (≈ 4.49 µM)

SMILES: Cc1cc(C)nc(NC(=O)c2cc(Br)cc(Br)c2O)c1
- MIC (Actinomyces viscosus [1]): 25 µg/mL (≈ 62.5 µM)

SMILES: O=C(Nc1nc2cc(Cl)ccc2[nH]1)c1cc(Br)cc(Br)c1O
- MIC (Actinomyces viscosus [1]): 4 µg/mL (≈ 8.98 µM)

SMILES: CCCCCCCCCC(=O)c1ccc(O)c(C(=O)NCc2ccc(Cl)c(Cl)c2)c1
- MIC (Actinomyces viscosus [1]): 0.5 µg/mL (≈ 1.11 µM)

SMILES: CCCCCCCCc1ccc(O)c(C(=O)Nc2ccc(Br)cc2)c1
- MIC (Actinomyces viscosus [1]): 0.2 µg/mL (≈ 0.495 µM)

SMILES: CCCCCCCCCC(=O)c1ccc(O)c(C(=O)Nc2nc3ccccc3s2)c1
- MIC (Actinomyces israelii [6]): > 10 µg/mL
- MIC (Actinomyces naeslundii [7]): > 10 µg/mL
- MIC (Actinomyces naeslundii [8]): > 10 µg/mL
- MIC (Actinomyces viscosus [1]): 0.5 µg/mL (≈ 1.18 µM)
- MIC (Actinomyces israelii [9]): 5 µg/mL (≈ 11.8 µM)
- MIC (Actinomyces viscosus [10]): 10 µg/mL (≈ 23.6 µM)
- MIC (Actinomyces israelii [11]): > 10 µg/mL

SMILES: O=C(NCc1ccc(Cl)cc1)c1cc(Br)cc(Br)c1O
- MIC (Actinomyces viscosus [1]): 4 µg/mL (≈ 9.54 µM)

SMILES: CCCCCCCCCCCC(=O)c1ccc(O)c(C(=O)Nc2cccc(C(F)(F)F)c2)c1
- MIC (Actinomyces israelii [6]): 0.1 µg/mL (≈ 0.216 µM)
- MIC (Actinomyces naeslundii [7]): 0.1 µg/mL (≈ 0.216 µM)
- MIC (Actinomyces naeslundii [8]): 0.05 µg/mL (≈ 0.108 µM)
- MIC (Actinomyces viscosus [1]): 0.5 µg/mL (≈ 1.08 µM)
- MIC (Actinomyces israelii [9]): 0.1 µg/mL (≈ 0.216 µM)
- MIC (Actinomyces viscosus [10]): 0.1 µg/mL (≈ 0.216 µM)
- MIC (Actinomyces israelii [11]): 0.5 µg/mL (≈ 1.08 µM)

SMILES: CCCCCCc1ccc(O)c(C(=O)NCc2ccc(Cl)c(Cl)c2)c1
- MIC (Actinomyces israelii [6]): 1 µg/mL (≈ 2.63 µM)
- MIC (Actinomyces naeslundii [7]): 0.5 µg/mL (≈ 1.31 µM)
- MIC (Actinomyces naeslundii [8]): 0.5 µg/mL (≈ 1.31 µM)
- MIC (Actinomyces viscosus [1]): 0.5 µg/mL (≈ 1.31 µM)
- MIC (Actinomyces israelii [9]): 0.5 µg/mL (≈ 1.31 µM)
- MIC (Actinomyces viscosus [10]): 0.5 µg/mL (≈ 1.31 µM)
- MIC (Actinomyces israelii [11]): 1 µg/mL (≈ 2.63 µM)

SMILES: CCCCCCCC(=O)c1ccc(O)c(C(=O)Nc2nc3ccccc3s2)c1
- MIC (Actinomyces viscosus [1]): 1 µg/mL (≈ 2.52 µM)
